Measurements: US20260232767A1, “INTERLEUKIN-23 RECEPTOR ANTAGONIST PEPTIDES FOR USE IN THE TREATMENT OF PSORIASIS” (Janssen Pharmaceutica NV, priority 2023, published 2026)

Test system: subjects with moderate-to-severe plaque psoriasis
Experiment: PSSD symptom and sign scores, Example 2
Format: in vivo, human
Details: for Change from Baseline in PSSD Symptom Score at Week 52, LSMean: MMRM model; for Subjects Achieving PSSD Sign Score 0 at Week 52: Subjects w/Baseline PSSD Sign Score ≥1 (Table 26, second block); for Subjects achieving PSSD Sign Score = 0 at Week 52: subjects with Baseline PSSD Sign Score ≥1; for Subjects achieving PSSD Symptom Score = 0 at Week 52: subjects with Baseline PSSD Symptom Score ≥1; for Change from Baseline in PSSD Sign Score, LSMean / Change from Baseline in PSSD Symptom Score, LSMean: MMRM
[1] = Placebo → 100 mg QD, crossed over at or after Week 16

SMILES: CC(=O)NCCCC[C@@H]1NC(=O)[C@H](Cc2c[nH]c3c(C)cccc23)NC(=O)[C@H]([C@@H](C)O)NC(=O)[C@H](CC(N)=O)NC(=O)[C@@H](NC(C)=O)C(C)(C)SSC(C)(C)[C@@H](C(=O)N[C@@H](Cc2ccc(OCCN)cc2)C(=O)N[C@@H](Cc2ccc3ccccc3c2)C(=O)NC2(C(=O)N[C@@H](CCC(=O)O)C(=O)N[C@@H](CC(N)=O)C(=O)N[C@@H](Cc3cccnc3)C(=O)N(C)CC(N)=O)CCOCC2)NC1=O [IL-23 receptor antagonist peptide, Ac-[Pen]*-N-T-[W(7-Me)]-[Lys(Ac)]-[Pen]*-Phe[4-(2-aminoethoxy)]-[2-Nal]-[THP]-E-N-[3-Pal]-Sarc-NH2 (*[Pen]-[Pen]* formdisulfidebond)]
- Change from Baseline in PSSD Sign Score at Week 52, Median (25 mg BID): −38.5
- Change from Baseline in PSSD Symptom Score at Week 52, Median (25 mg BID): −27.0
- Change from Baseline in PSSD Symptom Score at Week 52, LSMean (25 mg BID): −31.4
- Subjects Achieving PSSD Sign Score 0 at Week 52 (25 mg BID): 5 (12.2%)
- Subjects achieving PSSD Sign Score = 0 at Week 52 (25 mg BID): 5 (12.2%)
- Subjects achieving PSSD Symptom Score = 0 at Week 52 (25 mg BID): 7 (17.1%)
- Change from Baseline in PSSD Sign Score at Week 52, Median (25 mg QD): −32.5
- Change from Baseline in PSSD Symptom Score at Week 52, Median (25 mg QD): −35.0
- Change from Baseline in PSSD Symptom Score at Week 52, LSMean (25 mg QD): −22.3
- Subjects Achieving PSSD Sign Score 0 at Week 52 (25 mg QD): 7 (16.3%)
- Subjects achieving PSSD Sign Score = 0 at Week 52 (25 mg QD): 7 (16.3%)
- Subjects achieving PSSD Symptom Score = 0 at Week 52 (25 mg QD): 8 (18.6%)
- Change from Baseline in PSSD Sign Score at Week 52, Median (50 mg QD): −45.0
- Change from Baseline in PSSD Symptom Score at Week 52, Median (50 mg QD): −34.0
- Change from Baseline in PSSD Symptom Score at Week 52, LSMean (50 mg QD): −33.0
- Subjects achieving PSSD Sign Score = 0 at Week 52 (50 mg QD): 5 (11.6%)
- Subjects achieving PSSD Symptom Score = 0 at Week 52 (50 mg QD): 9 (21.4%)
- Change from Baseline in PSSD Sign Score at Week 52, Median (100 mg BID): −55.0
- Change from Baseline in PSSD Symptom Score at Week 52, Median (100 mg BID): −53.0
- Change from Baseline in PSSD Symptom Score at Week 52, LSMean (100 mg BID): −44.0
- Subjects Achieving PSSD Sign Score 0 at Week 52 (100 mg BID): 7 (16.7%)
- Subjects achieving PSSD Sign Score = 0 at Week 52 (100 mg BID): 7 (16.7%)
- Change from Baseline in PSSD Sign Score at Week 52, Median (100 mg QD): −43.0
- Change from Baseline in PSSD Symptom Score at Week 52, Median (100 mg QD): −28.0
- Change from Baseline in PSSD Symptom Score at Week 52, LSMean (100 mg QD): −36.5
- Subjects Achieving PSSD Sign Score 0 at Week 52 (100 mg QD): 6 (14.0%)
- Change from Baseline in PSSD Sign Score at Week 52, Median [1]: −48.5
- Change from Baseline in PSSD Symptom Score at Week 52, Median [1]: −30.0
- Change from Baseline in PSSD Symptom Score at Week 52, LSMean [1]: −32.4
- Subjects achieving PSSD Sign Score = 0 at Week 52 [1]: (22.9%)
- Subjects achieving PSSD Symptom Score = 0 at Week 52 [1]: (34.3%)
- Change from Baseline in PSSD Sign Score, Mean (Week 1, 25 mg BID): −11.3
- Change from Baseline in PSSD Sign Score, Median (Week 1, 25 mg BID): −11.0
- Change from Baseline in PSSD Symptom Score, Mean (Week 1, 25 mg BID): −7.6
- Change from Baseline in PSSD Symptom Score, Median (Week 1, 25 mg BID): −8.0
- Change from Baseline in PSSD Sign Score, LSMean (Week 1, 25 mg BID): −11.4
- Change from Baseline in PSSD Symptom Score, LSMean (Week 1, 25 mg BID): −7.8
- Change from Baseline in PSSD Sign Score, Mean (Week 1, 25 mg QD): −11.9
- Change from Baseline in PSSD Sign Score, Median (Week 1, 25 mg QD): −10.5
- Change from Baseline in PSSD Symptom Score, Mean (Week 1, 25 mg QD): −12.9
- Change from Baseline in PSSD Symptom Score, Median (Week 1, 25 mg QD): −12.0
- Change from Baseline in PSSD Sign Score, LSMean (Week 1, 25 mg QD): −10.9
- Change from Baseline in PSSD Symptom Score, LSMean (Week 1, 25 mg QD): −11.1
- Change from Baseline in PSSD Sign Score, Mean (Week 1, 50 mg QD): −13.3
- Change from Baseline in PSSD Sign Score, Median (Week 1, 50 mg QD): −11.0
- Change from Baseline in PSSD Symptom Score, Mean (Week 1, 50 mg QD): −9.6
- Change from Baseline in PSSD Symptom Score, Median (Week 1, 50 mg QD): −12.0
- Change from Baseline in PSSD Sign Score, LSMean (Week 1, 50 mg QD): −13.3
- Change from Baseline in PSSD Symptom Score, LSMean (Week 1, 50 mg QD): −9.1
- Change from Baseline in PSSD Sign Score, Mean (Week 1, 100 mg BID): −15.9
- Change from Baseline in PSSD Sign Score, Median (Week 1, 100 mg BID): −16.0
- Change from Baseline in PSSD Symptom Score, Mean (Week 1, 100 mg BID): −12.5
- Change from Baseline in PSSD Symptom Score, Median (Week 1, 100 mg BID): −8.0
- Subjects Achieving PSSD Symptom Score 0 (%) (Week 1, 100 mg BID, Baseline Symptom Score ≥1, N=42): (2.4%)
- Change from Baseline in PSSD Sign Score, LSMean (Week 1, 100 mg BID): −15.6
- Change from Baseline in PSSD Symptom Score, LSMean (Week 1, 100 mg BID): −11.5
- Change from Baseline in PSSD Sign Score, Mean (Week 1, 100 mg QD): −12.0
- Change from Baseline in PSSD Sign Score, Median (Week 1, 100 mg QD): −9.0
- Change from Baseline in PSSD Symptom Score, Mean (Week 1, 100 mg QD): −6.2
- Change from Baseline in PSSD Symptom Score, Median (Week 1, 100 mg QD): −7.0
- Change from Baseline in PSSD Sign Score, LSMean (Week 1, 100 mg QD): −12.4
- Change from Baseline in PSSD Symptom Score, LSMean (Week 1, 100 mg QD): −8.4
- Change from Baseline in PSSD Sign Score, Mean (Week 2, 25 mg BID): −20.3
- Change from Baseline in PSSD Sign Score, Median (Week 2, 25 mg BID): −15.0
- Change from Baseline in PSSD Symptom Score, Mean (Week 2, 25 mg BID): −16.0
- Change from Baseline in PSSD Symptom Score, Median (Week 2, 25 mg BID): −12.0
- Change from Baseline in PSSD Sign Score, LSMean (Week 2, 25 mg BID): −20.7
- Change from Baseline in PSSD Symptom Score, LSMean (Week 2, 25 mg BID): −16.2
- Change from Baseline in PSSD Sign Score, Mean (Week 2, 25 mg QD): −17.6
- Change from Baseline in PSSD Sign Score, Median (Week 2, 25 mg QD): −17.5
- Change from Baseline in PSSD Symptom Score, Mean (Week 2, 25 mg QD): −18.1
- Change from Baseline in PSSD Symptom Score, Median (Week 2, 25 mg QD): −17.0
- Change from Baseline in PSSD Sign Score, LSMean (Week 2, 25 mg QD): −15.7
- Change from Baseline in PSSD Symptom Score, LSMean (Week 2, 25 mg QD): −15.8
- Change from Baseline in PSSD Sign Score, Mean (Week 2, 50 mg QD): −22.7
- Change from Baseline in PSSD Sign Score, Median (Week 2, 50 mg QD): −22.0
- Change from Baseline in PSSD Symptom Score, Mean (Week 2, 50 mg QD): −17.3
- Change from Baseline in PSSD Symptom Score, Median (Week 2, 50 mg QD): −16.0
- Subjects Achieving PSSD Symptom Score 0 (%) (Week 2, 50 mg QD, Baseline Symptom Score ≥1, N=42): (2.4%)
- Change from Baseline in PSSD Sign Score, LSMean (Week 2, 50 mg QD): −23.1
- Change from Baseline in PSSD Symptom Score, LSMean (Week 2, 50 mg QD): −17.2
- Change from Baseline in PSSD Sign Score, Mean (Week 2, 100 mg BID): −24.7
- Change from Baseline in PSSD Sign Score, Median (Week 2, 100 mg BID): −28.0
- Change from Baseline in PSSD Symptom Score, Mean (Week 2, 100 mg BID): −18.4
- Change from Baseline in PSSD Symptom Score, Median (Week 2, 100 mg BID): −14.0
- Change from Baseline in PSSD Sign Score, LSMean (Week 2, 100 mg BID): −24.3
- Change from Baseline in PSSD Symptom Score, LSMean (Week 2, 100 mg BID): −17.1
- Change from Baseline in PSSD Sign Score, Mean (Week 2, 100 mg QD): −22.6
- Change from Baseline in PSSD Sign Score, Median (Week 2, 100 mg QD): −20.0
- Change from Baseline in PSSD Symptom Score, Mean (Week 2, 100 mg QD): −15.2
- Change from Baseline in PSSD Symptom Score, Median (Week 2, 100 mg QD): −14.0
- Change from Baseline in PSSD Sign Score, LSMean (Week 2, 100 mg QD): −24.3
- Change from Baseline in PSSD Symptom Score, LSMean (Week 2, 100 mg QD): −18.4
- Change from Baseline in PSSD Sign Score, Mean (Week 4, 25 mg BID): −26.9
- Change from Baseline in PSSD Sign Score, Median (Week 4, 25 mg BID): −25.0
- Change from Baseline in PSSD Symptom Score, Mean (Week 4, 25 mg BID): −22.8
- Change from Baseline in PSSD Symptom Score, Median (Week 4, 25 mg BID): −20.0
- Subjects Achieving PSSD Symptom Score 0 (%) (Week 4, 25 mg BID, Baseline Symptom Score ≥1, N=41): (4.9%)
- Change from Baseline in PSSD Sign Score, LSMean (Week 4, 25 mg BID): −27.5
- Change from Baseline in PSSD Symptom Score, LSMean (Week 4, 25 mg BID): −23.1
- Change from Baseline in PSSD Sign Score, Mean (Week 4, 25 mg QD): −24.5
- Change from Baseline in PSSD Sign Score, Median (Week 4, 25 mg QD): −29.5
- Change from Baseline in PSSD Symptom Score, Mean (Week 4, 25 mg QD): −23.6
- Change from Baseline in PSSD Symptom Score, Median (Week 4, 25 mg QD): −23.0
- Subjects Achieving PSSD Symptom Score 0 (%) (Week 4, 25 mg QD, Baseline Symptom Score ≥1, N=43): (2.3%)
- Change from Baseline in PSSD Sign Score, LSMean (Week 4, 25 mg QD): −21.7
- Change from Baseline in PSSD Symptom Score, LSMean (Week 4, 25 mg QD): −19.9
- Change from Baseline in PSSD Sign Score, Mean (Week 4, 50 mg QD): −27.4
- Change from Baseline in PSSD Sign Score, Median (Week 4, 50 mg QD): −29.0
